The text below walks through data of paper PMC11952846, “The sterol-regulating human ARV1 binds cholesterol and phospholipids through its conserved ARV1 homology domain” (The Journal of Biological Chemistry, 2025).

Substitutions are numbered along the chain they refer to.

Experiment [1] deals with T1, 6XHIS-ARV1-N98 K84A (Homo sapiens, UniProt Q9H2C2, K84A).
T1 construct: Expressing amino-terminal 98 amino acids of ARV1; made in house; host or cells: E. coli BL21 (pET-28a(+))
T1 sequence (Q9H2C2 1-98 K84A): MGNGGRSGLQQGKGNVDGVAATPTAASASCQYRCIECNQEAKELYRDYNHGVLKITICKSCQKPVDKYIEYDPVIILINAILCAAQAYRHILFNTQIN
The experiment is described as follows: Lipid overlay far western, site-directed mutant. Particulars: compared to the ARV1-N98 protein. The experiment is classed as binding. On the procedure:
(§1) Lipid overlays were blocked in TBST-BSA (100 mM Tris–HCl buffer, pH 7.5, 150 mM NaCl, 0.5% Tween 20, 3% bovine serum albumin) for 1 h and subsequently washed eight separate times with TBST for 2 min each. Overlays were incubated with 0.5 μg/ml GST-tagged or 6XHIS-tagged proteins in 3% TBST-BSA buffer containing 0.1% Triton X-100, for 1 h at room temperature and washed as above. Overlays were incubated with either anti-GST or anti-6XHIS monoclonal antibodies at a 1:1000 dilution in TBST-BSA for 1 h at room temperature followed by eight washes in TBST. Overlays were visualized using Immobilon Western Chemiluminescent horseradish peroxidase substrate and protein–lipid interaction was detected using a GE ImageQuant LAS 3000 imager.

The target in experiment [2] is T2, GST-ARV1 (full-length ARV1) (Homo sapiens, UniProt Q9H2C2).
T2 construct: Expresses full length ARV1; made in house; host or cells: E. coli BL21 (pGEX-4T1)
T2 sequence (Q9H2C2 1-271): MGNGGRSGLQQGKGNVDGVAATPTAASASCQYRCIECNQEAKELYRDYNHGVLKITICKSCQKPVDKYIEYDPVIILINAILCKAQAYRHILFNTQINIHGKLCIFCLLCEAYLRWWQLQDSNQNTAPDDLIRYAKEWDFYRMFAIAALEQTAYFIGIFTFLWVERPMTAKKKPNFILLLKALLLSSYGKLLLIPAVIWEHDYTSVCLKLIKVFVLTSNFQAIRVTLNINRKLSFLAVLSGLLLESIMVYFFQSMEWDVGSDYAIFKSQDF
The experiment is described as follows: Lipid overlay far western. Type of experiment: binding. Here is the method:
as §1

Experiment [3] has as its target T3, GST-ARV1-N98 (Homo sapiens, UniProt Q9H2C2).
T3 construct: Expresses amino-terminal 98 amino acids of ARV1; made in house; host or cells: E. coli BL21 (pGEX-4T1)
T3 sequence (Q9H2C2 1-98): T1 sequence (Q9H2C2 1-98 K84A) with A84K
The experiment is described as follows: Lipid overlay far western. The experiment is classed as binding. On the procedure: as §1

For experiment [4], the target named is T4, GST-ARV1-N50 (Homo sapiens, UniProt Q9H2C2).
T4 construct: Expresses amino-terminal 50 amino acids of ARV1; made in house; host or cells: E. coli BL21 (pGEX-4T1)
T4 sequence (Q9H2C2 1-50): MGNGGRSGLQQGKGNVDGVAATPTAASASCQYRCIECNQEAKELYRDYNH
The experiment is described as follows: Lipid overlay far western, truncation. The experiment is classed as binding. The conditions noted are these: compared to ARV1-N98 / ARV1-N70. Here is the method: as §1

Experiment [5] has as its target T5, GST-ARV1-N98 (N-terminal 98 amino acids, AHD) (Homo sapiens, UniProt Q9H2C2).
T5 construct: Expresses amino-terminal 98 amino acids of ARV1; made in house; host or cells: E. coli BL21 (pGEX-4T1)
T5 sequence (Q9H2C2 1-98): T1 sequence (Q9H2C2 1-98 K84A) with A84K
The experiment is described as follows: Protein-lipid liposome binding assay (ultracentrifugation, Western blot). Particulars: protein detected in final pellet. Here is the method:
(§2) Lyophilized lipids were reconstituted in chloroform at 10 mg/ml and stored in glass tubes with Teflon tops at −20 °C until use. One milliliter of 10 mg/ml stock was dried under a stream of nitrogen in a glass tube until a lipid cake/film was formed. The lipid cake was then rehydrated in BLT rehydration buffer (5 mM Tris/HCl, pH 7.4, containing 150 mM NaCl) to a concentration of 1 mg/ml. Lipid suspensions were subjected to three freeze/thaw cycles using a dry ice ethanol/[…] water bath to encapsulate the buffer and improve liposome formation. The suspension and lipid extruder were equilibrated to temperature for 10 min and liposomes were extruded using […] polycarbonate membranes (Avestin). Liposomes were made by mixing stock lipid PL (1 mg/ml) with PC (10 mg/ml).
Cholesterol composition liposomes were rehydrated with cholesterol rehydration buffer (10 mM Hepes, pH 7.4, containing 150 mM KCl).
(§3) Liposomes were serial diluted in floatation buffer (100 mM NaCl, 2 mM EDTA, pH 5.5) to a final concentration of 0.1 mg/ml. Nine hundred microliters of liposome solution was placed in clear ultracentrifuge tubes and mixed with 100 μl of 0.01 μg/ml of protein. The liposome/protein solution was incubated at room temperature for 1 h with occasional shaking. An initial 100 μl of liposome/protein solution (liposomes) was removed and the remaining 900 μl was centrifuged at 50,000g for 20 min at 4 °C. The pellet was resuspended in 800 μl of fresh floatation buffer, centrifuged as above, and 800 μl of supernatant was removed (wash 1). This was repeated a second time and again 800 μl of supernatant was removed (wash 2). The final pellet was resuspended in 100 μl of floatation buffer plus SDS treatment buffer (pellet). Thirty microliters of each fraction was run on a 15% SDS-PAGE gel and probed with an anti-GST monoclonal antibody at a 1:1500 dilution.

The target of experiment [6] is T6, GST-ARV1-N98 C34/C37A (Homo sapiens, UniProt Q9H2C2, C34A/C37A).
T6 construct: Expresses amino-terminal 98 amino acids of ARV1; made in house; host or cells: E. coli BL21 (pGEX-4T1)
T6 sequence (Q9H2C2 1-98 C34A/C37A): T1 sequence (Q9H2C2 1-98 K84A) with C34A, C37A, A84K
The experiment is described as follows: Liposome binding assay, site-directed mutant. Particulars: PC:PL, sulfatide or PI(4)P liposomes. Here is the method: as §2
Sulfatide liposomes were generated as previously described ([94]). All lipids were resuspended in organic solvents as per manufacturer’s instructions. Liposomes were prepared with mixing PC:PE:cholesterol:sulfatides (1:1:1:4) and subsequently dried down by lyophilization to obtain lipid films. Lipids were hydrated in 20 mM Tris–HCL, pH 6.8, containing 100 mM NaCl at a concentration of 1 mg/ml.
PI(4)P liposomes were generated as described by Knodler et al. ([95]), with some modifications. Briefly, liposomes were generated at a lipid concentration of 10 mg/ml. Liposomes contained PC (60%), PI (30%), PE (8%), and PI(4)P (2%). Lipid solution was dried down and resuspended in liposome buffer (20 mM Hepes–HCL, pH 7.4, containing 1 mM EDTA and 50 mM potassium acetate). Liposomes were formed by sonication on ice.
as §3

Experiment [7] concerns the target T7, 6XHIS-ARV1-N98 K67A (Homo sapiens, UniProt Q9H2C2, K67A).
T7 construct: Expressing amino-terminal 98 amino acids of ARV1; made in house; host or cells: E. coli BL21 (pET-28a(+))
T7 sequence (Q9H2C2 1-98 K67A): T1 sequence (Q9H2C2 1-98 K84A) with K67A, A84K
The experiment is described as follows: Lipid overlay far western, site-directed mutant. The experiment is classed as binding. Particulars: compared to the ARV1-N98 protein. Here is the method:
as §1

The target of experiment [8] is T8, 6XHIS-ARV1-N98 C34/C37A (Homo sapiens, UniProt Q9H2C2, C34A/C37A).
T8 construct: Expressing amino-terminal 98 amino acids of ARV1; made in house; host or cells: E. coli BL21 (pET-28a(+))
T8 sequence (Q9H2C2 1-98 C34A/C37A): T1 sequence (Q9H2C2 1-98 K84A) with C34A, C37A, A84K
The experiment is described as follows: Lipid overlay far western, site-directed mutant. Particulars: compared to the ARV1-N98 protein. Type of experiment: binding. On the procedure:
as §1

The mark [9] stands for this setting: lipid-embedded membrane strips, incl. sphingolipid strip.
The mark [10] stands for this setting: PIP lipid membrane strip, 100pmol-1.56pmol per spot.

Regarding `CCCCC/C=C\C/C=C\CCCCCCCC(=O)OC[C@H](COP(=O)(O)OCC(O)COP(=O)(O)OC[C@@H](COC(=O)CCCCCCC/C=C\C/C=C\CCCCC)OC(=O)CCCCCCC/C=C\C/C=C\CCCCC)OC(=O)CCCCCCC/C=C\C/C=C\CCCCC` (some centres unmarked) [CL, cardiolipin], the entries for the “change of lipid-protein interaction” value in experiment [1] and in experiment [4] were “weakened” and “eliminated”, respectively. Moreover, the lipid-protein interaction result in experiment [2] (setting [9]) and in experiment [3] (setting [9]) was “interacted” each time. Further, the “binding to PC:PL liposomes” value in experiment [5] is “bound”.

Regarding `CCCCCCCCCCCCCCCC(=O)OC[C@H](COP(=O)(O)O)OC(=O)CCCCCCCCCCCCCCC` [PA, phosphatidic acid], the liposome binding entry in experiment [6] is given as “bound”. Further, the “binding to PC:PL liposomes” value in experiment [5] is reported as “not”.

On to `CCCCCCCC/C=C\CCCCCCCC(=O)OC[C@H](COP(=O)(O)OCC(O)CO)OC(=O)CCCCCCC/C=C\CCCCCCCC` (some centres unmarked) [PG, phosphatidylglycerol], for which the “change of lipid-protein interaction” value is “weakened” in experiment [7], “weakened or eliminated” in experiment [8], “weakened” in experiment [1] and “eliminated” in experiment [4]. Moreover, the lipid-protein interaction entry in experiment [2] (setting [9]) is given as “weakly”; in experiment [3] (setting [9]), “interacted”. In addition, the liposome binding entry in experiment [6] is recorded as “not”. The “binding to PC:PL liposomes” value in experiment [5] is given as “bound”.

On to `CCCCCCCCCCCCCCCCCC(=O)OC[C@H](COP(=O)(O)OC[C@H](N)C(=O)O)OC(=O)CCCCCCCCCCCCCCCCC` [PS, phosphatidylserine], for which the “change of lipid-protein interaction” value is listed as “enhanced” in experiment [8] and “restored” in experiment [4]. For the same molecule, the lipid-protein interaction entry in experiment [2] (setting [9]) and in experiment [3] (setting [9]) was “interacted” throughout. Further, the “binding to PC:PL liposomes” value in experiment [5] was “bound”.

As for `CCCCCC(=O)O[C@H](COC(=O)CCCCCNC(=O)CCCC[C@@H]1SC[C@@H]2NC(=O)N[C@@H]21)COP(=O)(O)O[C@H]1[C@H](O)[C@@H](O)[C@H](OP(=O)(O)O)[C@@H](O)[C@H]1O` [reference compound], the “change of lipid-protein interaction” value in experiment [7] is “increased interactions”; in experiment [8], “enhanced interactions”; in experiment [1], “increased interactions”. The lipid-protein interaction result is on record as “weakly” in experiment [2] (setting [10]), “weakly” in experiment [2] (setting [9]), “interacted” in experiment [3] (setting [10]) and “interacted” in experiment [3] (setting [9]). For the same molecule, the liposome binding result in experiment [6] is on record as “bound”.

Turning to phosphatidylethanolamine [PE], the “change of lipid-protein interaction” value in experiment [7] is listed as “interacted weakly”. In addition, the lipid-protein interaction entry in experiment [2] (setting [9]) and in experiment [3] (setting [9]) was “not seen” throughout. Besides, the “binding to PC:PL liposomes” value in experiment [5] is “Neither”.
